Results: patent US11834432B2, “Substituted amino six-membered nitric heterocyclic ring compound and preparation and use thereof” (SHANGHAI INSTITUTE OF MATERIA MEDICA, CHINESE ACADEMY OF …, priority 2016, dated 2023)
Values joined by “and” are separate entries in the source; they are usually repeats but may differ in a detail not shown here. Equal entries are not always repeated.

Experiments:
[1] = tested on: human gastric cancer SNU-16 subcutaneously transplanted tumor; experiment: Growth of subcutaneously transplanted tumor in human gastric cancer SNU-16 nude mice; assay type: in vivo
Description: The human gastric cancer SNU-16 cell strain was preserved in our laboratory.
S10 groups (30 mg/kg and 10 mg/kg) were orally administered once a day for 21 days; AZD4547 group (10 mg/kg) was administered orally once a day for 21 days; solvent control group was given the same amount of water for injection.

[2] = tested on: human lung cancer NCI-H1581 subcutaneously transplanted tumor; experiment: Growth of subcutaneously transplanted tumor in human lung cancer NCI-H1581 nude mice
Description: The cell strain was inoculated in the right axilla of the nude mice, and the amount of cells inoculated was 5×10^6/mouse to form transplanted tumor, which was directly inoculated and used.
The tumor tissue in the prosperous growth period was cut into 1.5 mm^3, and inoculated subcutaneously in the right axilla of the nude mice under aseptic conditions. The diameter of the transplanted tumor in the nude mice was measured with a vernier caliper, and the animals were randomly grouped when the average volume of tumors was about 150-160 mm^3. […] The solvent control group was given an equal amount of water for injection. The diameter of the transplanted tumor was measured twice a week during the entire experiment, and the body weight of the mice was also weighed. The calculation formula of tumor volume (TV) is: TV=1/2×a×b^2, where a and b respectively represent the length and width of the tumor. The relative tumor volume (RTV) was calculated based on the measured results and the formula was: RTV=Vt/V0, where V0 is the tumor volume measured at grouping and dosing (d0), and Vt is the tumor volume at each measurement.

[3] = tested on: SNU16 cells; experiment: Inhibition of proliferation of SNU16 cells (CCK-8); assay type: cell-based; conditions: Homo sapiens, SNU-16, 72 h
Description: The inhibitory effect on proliferation of SNU16 cells of a compound was examined by CCK-8 Cell Counting Kit (Dojindo). The steps are as follows: SNUI 6 cells at Logarithmic growth phase were seeded in a 96-well culture plate at appropriate density, 90 ul for each well. After cultured overnight, different concentrations of drugs were added and treated for 72 h, while solvent control well was set (negative control). After 72 h, the influence of the compound on the proliferation of cells was observed by CCK-8 cell counting kit (Dojindo). 10 μL of CCK-8 reagent was added to each well. After incubated for 2-4 hours in a 37° C. incubator, the plate was read with SpectraMax 190 microplate reader at wavelength 450 nm.
The IC50 values were obtained by four-parameter regression analysis using the software supplied with the microplate reader.

[4] = target: c-Met (Homo sapiens (Human), UniProt P08581); experiment: In vitro tyrosine kinase inhibition screening (ELISA); assay type: biochemical; conditions: 1 h
Description: (§1) 4. In Vitro Screening Test on Tyrosine Kinase Activity Inhibition Screening method: Enzyme-linked immunosorbent assay (ELISA) tyrosine kinase: Enzyme spectrum Time of action: 1 h

[5] = target: c-Src (Homo sapiens (Human), UniProt P12931); experiment: as above; assay type: biochemical; conditions: 1 h
Description: as §1

[6] = target: ErbB2 (Homo sapiens (Human), UniProt P04626); experiment: as above; assay type: biochemical; conditions: 1 h
Description: as §1

[7] = target: ABL (Homo sapiens (Human), UniProt P00519); experiment: as above; assay type: biochemical; conditions: 1 h
Description: as §1

[8] = target: VEGFR-1 (Homo sapiens (Human), UniProt P17948); experiment: as above; assay type: biochemical; conditions: 1 h
VEGFR-1, sequence (P17948 27-1338, species assumed): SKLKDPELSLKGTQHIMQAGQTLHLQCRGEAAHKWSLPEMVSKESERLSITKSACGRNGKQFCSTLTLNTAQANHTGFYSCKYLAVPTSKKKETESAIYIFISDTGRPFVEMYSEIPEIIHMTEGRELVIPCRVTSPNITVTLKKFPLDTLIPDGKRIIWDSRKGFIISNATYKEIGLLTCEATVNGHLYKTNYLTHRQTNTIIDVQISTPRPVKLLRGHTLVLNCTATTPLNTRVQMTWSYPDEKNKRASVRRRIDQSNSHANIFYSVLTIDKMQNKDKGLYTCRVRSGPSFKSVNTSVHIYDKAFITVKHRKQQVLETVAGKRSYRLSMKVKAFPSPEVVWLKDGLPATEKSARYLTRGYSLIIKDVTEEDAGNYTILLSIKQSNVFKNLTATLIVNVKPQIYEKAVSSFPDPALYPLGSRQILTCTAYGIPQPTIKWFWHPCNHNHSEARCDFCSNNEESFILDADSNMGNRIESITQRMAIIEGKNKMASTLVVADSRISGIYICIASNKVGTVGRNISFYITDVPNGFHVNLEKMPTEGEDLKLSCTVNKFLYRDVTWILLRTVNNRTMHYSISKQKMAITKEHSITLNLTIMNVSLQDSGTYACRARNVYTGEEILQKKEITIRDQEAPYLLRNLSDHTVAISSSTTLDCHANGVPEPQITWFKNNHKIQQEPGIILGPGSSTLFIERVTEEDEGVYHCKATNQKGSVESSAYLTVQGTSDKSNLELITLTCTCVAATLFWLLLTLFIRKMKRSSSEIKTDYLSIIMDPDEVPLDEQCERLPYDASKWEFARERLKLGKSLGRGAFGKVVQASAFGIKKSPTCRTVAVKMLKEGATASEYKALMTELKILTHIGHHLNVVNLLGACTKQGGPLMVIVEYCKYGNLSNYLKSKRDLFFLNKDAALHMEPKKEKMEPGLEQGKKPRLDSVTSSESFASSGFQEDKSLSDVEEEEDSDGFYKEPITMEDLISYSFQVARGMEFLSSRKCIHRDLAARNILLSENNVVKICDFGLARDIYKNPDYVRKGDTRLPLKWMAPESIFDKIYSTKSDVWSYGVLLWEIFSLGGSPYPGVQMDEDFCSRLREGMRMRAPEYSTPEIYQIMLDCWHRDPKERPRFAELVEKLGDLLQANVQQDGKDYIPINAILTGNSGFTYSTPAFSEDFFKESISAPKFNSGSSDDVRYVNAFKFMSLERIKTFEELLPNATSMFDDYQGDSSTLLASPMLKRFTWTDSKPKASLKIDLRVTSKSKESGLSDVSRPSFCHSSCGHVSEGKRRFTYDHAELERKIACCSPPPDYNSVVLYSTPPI
Description: as §1

[9] = target: ErbB4 (Homo sapiens (Human), UniProt Q15303); experiment: as above; assay type: biochemical; conditions: 1 h
Description: as §1

[10] = target: VEGFR-2 (Homo sapiens (Human), UniProt P35968); experiment: as above; assay type: biochemical; conditions: 1 h
Description: as §1

[11] = target: RET (Homo sapiens (Human), UniProt P07949); experiment: as above; assay type: biochemical; conditions: 1 h
Description: as §1

[12] = target: EGFR (Homo sapiens (Human), UniProt P00533); experiment: as above; assay type: biochemical; conditions: 1 h
EGFR, sequence (P00533 25-1210, species assumed): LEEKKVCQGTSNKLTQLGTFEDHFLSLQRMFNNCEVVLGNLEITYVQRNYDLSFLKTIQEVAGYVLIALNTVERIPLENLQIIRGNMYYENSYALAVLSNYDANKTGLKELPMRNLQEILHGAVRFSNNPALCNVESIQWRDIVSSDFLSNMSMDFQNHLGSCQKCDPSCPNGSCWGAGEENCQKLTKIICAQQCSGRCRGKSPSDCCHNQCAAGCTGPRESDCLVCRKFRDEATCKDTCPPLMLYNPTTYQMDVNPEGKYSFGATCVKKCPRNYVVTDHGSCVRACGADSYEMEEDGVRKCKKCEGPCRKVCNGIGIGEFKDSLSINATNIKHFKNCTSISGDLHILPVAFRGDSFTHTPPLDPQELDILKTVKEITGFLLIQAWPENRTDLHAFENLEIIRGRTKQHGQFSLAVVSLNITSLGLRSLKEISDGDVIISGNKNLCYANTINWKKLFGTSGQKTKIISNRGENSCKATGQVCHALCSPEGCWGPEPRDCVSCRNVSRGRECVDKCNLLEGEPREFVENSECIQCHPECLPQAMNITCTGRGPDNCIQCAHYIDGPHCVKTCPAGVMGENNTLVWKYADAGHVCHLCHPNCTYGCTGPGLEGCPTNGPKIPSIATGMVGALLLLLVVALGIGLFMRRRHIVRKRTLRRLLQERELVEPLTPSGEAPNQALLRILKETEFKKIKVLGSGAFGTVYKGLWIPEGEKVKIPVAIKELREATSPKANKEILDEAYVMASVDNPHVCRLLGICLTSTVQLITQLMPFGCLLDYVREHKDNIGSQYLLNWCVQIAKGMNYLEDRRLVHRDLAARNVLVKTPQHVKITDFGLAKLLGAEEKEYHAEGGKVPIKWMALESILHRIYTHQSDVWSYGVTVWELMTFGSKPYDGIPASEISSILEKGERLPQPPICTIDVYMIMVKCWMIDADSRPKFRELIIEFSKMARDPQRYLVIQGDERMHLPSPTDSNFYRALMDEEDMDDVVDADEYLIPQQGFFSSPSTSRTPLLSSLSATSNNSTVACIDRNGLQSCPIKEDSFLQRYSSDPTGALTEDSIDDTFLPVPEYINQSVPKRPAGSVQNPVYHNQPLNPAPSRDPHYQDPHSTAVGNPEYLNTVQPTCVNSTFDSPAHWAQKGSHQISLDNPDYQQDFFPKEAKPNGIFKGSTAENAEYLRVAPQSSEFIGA
Description: as §1

[13] = target: PDGFR-β (Homo sapiens (Human), UniProt P09619); experiment: as above; assay type: biochemical; conditions: 1 h
Description: as §1

[14] = target: EPH-A2 (Homo sapiens (Human), UniProt P29317); experiment: as above; assay type: biochemical; conditions: 1 h
Description: as §1

[15] = target: IGF1R (Homo sapiens (Human), UniProt P08069); experiment: as above; assay type: biochemical; conditions: 1 h
IGF1R, sequence (P08069 31-1367, species assumed): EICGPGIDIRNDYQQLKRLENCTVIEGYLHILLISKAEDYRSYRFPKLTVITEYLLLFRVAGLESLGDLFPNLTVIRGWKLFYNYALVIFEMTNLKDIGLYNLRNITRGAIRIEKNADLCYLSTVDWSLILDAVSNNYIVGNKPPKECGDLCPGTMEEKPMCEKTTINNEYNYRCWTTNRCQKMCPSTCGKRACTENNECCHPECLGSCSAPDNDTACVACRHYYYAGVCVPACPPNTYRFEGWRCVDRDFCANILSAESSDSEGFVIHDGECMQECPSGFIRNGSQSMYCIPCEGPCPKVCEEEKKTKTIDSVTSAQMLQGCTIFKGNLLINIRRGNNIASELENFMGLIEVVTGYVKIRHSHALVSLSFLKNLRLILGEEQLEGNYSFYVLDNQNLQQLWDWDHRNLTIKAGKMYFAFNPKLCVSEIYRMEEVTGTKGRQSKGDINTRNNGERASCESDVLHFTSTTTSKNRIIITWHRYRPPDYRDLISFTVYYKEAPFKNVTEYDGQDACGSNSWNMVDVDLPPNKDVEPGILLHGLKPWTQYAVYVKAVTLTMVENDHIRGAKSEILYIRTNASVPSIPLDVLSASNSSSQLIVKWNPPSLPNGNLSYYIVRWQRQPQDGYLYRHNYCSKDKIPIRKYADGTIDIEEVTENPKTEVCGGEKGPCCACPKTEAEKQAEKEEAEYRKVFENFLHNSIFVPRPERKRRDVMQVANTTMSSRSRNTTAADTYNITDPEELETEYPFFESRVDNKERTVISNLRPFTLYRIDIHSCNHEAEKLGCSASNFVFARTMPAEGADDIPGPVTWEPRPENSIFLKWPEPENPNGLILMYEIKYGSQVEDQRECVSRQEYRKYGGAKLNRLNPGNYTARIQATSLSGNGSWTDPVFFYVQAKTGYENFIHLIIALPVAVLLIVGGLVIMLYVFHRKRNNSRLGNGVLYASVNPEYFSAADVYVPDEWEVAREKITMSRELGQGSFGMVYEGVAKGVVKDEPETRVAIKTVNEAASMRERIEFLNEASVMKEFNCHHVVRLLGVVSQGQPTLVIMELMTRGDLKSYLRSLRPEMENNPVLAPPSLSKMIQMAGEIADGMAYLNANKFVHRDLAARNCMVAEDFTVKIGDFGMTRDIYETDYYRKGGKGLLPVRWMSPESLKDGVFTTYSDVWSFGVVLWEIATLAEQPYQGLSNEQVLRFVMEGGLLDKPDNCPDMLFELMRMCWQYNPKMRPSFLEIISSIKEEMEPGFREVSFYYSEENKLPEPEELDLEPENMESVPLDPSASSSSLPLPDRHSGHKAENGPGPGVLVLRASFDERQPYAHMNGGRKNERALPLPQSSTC
Description: as §1

[16] = target: PDGFR-α (Homo sapiens (Human), UniProt P16234); experiment: as above; assay type: biochemical; conditions: 1 h
PDGFR-α, sequence (P16234 24-1089): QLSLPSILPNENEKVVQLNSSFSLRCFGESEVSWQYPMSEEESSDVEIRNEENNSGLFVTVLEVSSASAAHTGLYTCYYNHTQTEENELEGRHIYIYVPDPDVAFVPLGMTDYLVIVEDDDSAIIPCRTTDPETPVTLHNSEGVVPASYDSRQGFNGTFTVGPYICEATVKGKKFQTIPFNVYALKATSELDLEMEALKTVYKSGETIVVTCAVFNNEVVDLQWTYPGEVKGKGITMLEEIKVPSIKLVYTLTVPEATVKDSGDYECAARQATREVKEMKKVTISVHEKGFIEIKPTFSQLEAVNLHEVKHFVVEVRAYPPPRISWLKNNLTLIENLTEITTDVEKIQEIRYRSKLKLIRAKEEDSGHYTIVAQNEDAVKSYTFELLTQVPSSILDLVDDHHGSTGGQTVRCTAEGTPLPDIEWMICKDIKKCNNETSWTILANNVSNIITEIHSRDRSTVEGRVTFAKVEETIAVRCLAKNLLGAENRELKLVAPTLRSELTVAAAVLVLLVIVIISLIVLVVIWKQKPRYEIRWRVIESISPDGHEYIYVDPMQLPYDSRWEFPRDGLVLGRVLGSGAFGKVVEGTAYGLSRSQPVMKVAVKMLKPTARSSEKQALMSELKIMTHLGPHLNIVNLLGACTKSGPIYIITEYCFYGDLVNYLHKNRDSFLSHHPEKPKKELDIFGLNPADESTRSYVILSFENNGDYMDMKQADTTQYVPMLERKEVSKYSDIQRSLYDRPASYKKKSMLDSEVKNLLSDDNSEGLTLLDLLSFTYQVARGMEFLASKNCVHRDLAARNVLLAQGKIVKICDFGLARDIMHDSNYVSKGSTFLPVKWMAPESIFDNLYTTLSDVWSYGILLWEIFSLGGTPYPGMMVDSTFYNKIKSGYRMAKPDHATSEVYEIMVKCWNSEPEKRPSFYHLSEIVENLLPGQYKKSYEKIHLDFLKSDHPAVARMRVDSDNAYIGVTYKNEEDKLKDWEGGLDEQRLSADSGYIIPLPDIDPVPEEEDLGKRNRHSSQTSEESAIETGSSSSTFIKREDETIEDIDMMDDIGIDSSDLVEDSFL
Description: as §1

## CNC(=O)c1cccc2cc(Oc3ccnc(NC(=O)c4ccc(N5C[C@@H](C)N[C@@H](C)C5)cc4)c3)ccc12 [Compound S10]
[1]; 10 mg/kg po qd/21, d0
  Body weight (g) d0: 19.9 g
  TV (mm^3, mean ± SD) d0: 106 ± 33 mm^3
[1]; 10 mg/kg po qd/21, d21
  Body weight (g) d21: 21.4 g
  RTV (mean ± SD): 3.48 ± 2.29
  T/C (%): 25.35% and 25%
  TV (mm^3, mean ± SD) d21: 322 ± 107 mm^3
[1]; 30 mg/kg po once a day for 21 days
  Body weight change, condition and mortality of mice during the experiment: average weight of mice in the S10 group (30 mg/kg) was decreased, but the mice were still in good condition and no mice died
[1]; 30 mg/kg po qd/21, d0
  Body weight (g) d0: 21.2 g
  TV (mm^3, mean ± SD) d0: 106 ± 22 mm^3
[1]; 30 mg/kg po qd/21, d21
  Body weight (g) d21: 17.0 g
  RTV (mean ± SD): 1.19 ± 0.38
  T/C (%): 8.67% and 9%
  TV (mm^3, mean ± SD) d21: 125 ± 47 mm^3
[2]; 2.5 mg/kg po qd/14, d0
  Body weight (g) d0: 19.8 g
  TV (mm^3, mean SD) d0: 157 ± 43 mm^3
[2]; 2.5 mg/kg po qd/14, d14
  Body weight (g) d14: 21.8 g
  RTV (mean SD): 8.36 ± 2.17
  T/C (%): 40.19% and 40%
  TV (mm^3, mean SD) d14: 1287 ± 412 mm^3
[2]; 5 mg/kg po qd/14, d0
  Body weight (g) d0: 19.0 g
  TV (mm^3, mean SD) d0: 154 ± 53 mm^3
[2]; 5 mg/kg po qd/14, d14
  Body weight (g) d14: 21.5 g
  RTV (mean SD): 3.57 ± 0.91
  T/C (%): 17.18% and 17%
  TV (mm^3, mean SD) d14: 524 ± 122 mm^3
[2]; 10 mg/kg po qd/14, d0
  Body weight (g) d0: 19.9 g
  TV (mm^3, mean SD) d0: 155 ± 45 mm^3
[2]; 10 mg/kg po qd/14, d14
  Body weight (g) d14: 23.0 g
  RTV (mean SD): 2.09 ± 0.77
  T/C (%): 10.03% and 10%
  TV (mm^3, mean SD) d14: 338 ± 223 mm^3
[2]; 10, 5 and 2.5 mg/kg po once a day for two weeks
  Condition and mortality of animals during the experiment: the animals in each group were in good condition and there was no mice died
[3]
  IC50: 6.1 nM
[3]; 10 nM, 72 h, read-out: Inhibition ratio (%)
  inhibition at 0.01 µM: 59.6%
[3]; 100 nM, 72 h, read-out: Inhibition ratio (%)
  inhibition at 0.1 µM: 62.1%
[3]; 1000 nM, 72 h, read-out: Inhibition ratio (%)
  inhibition at 1 µM: 59.7%
[4]; 10 nM
  Inhibition ratio (%) c-Met: 11.2%
[4]; 1000 nM
  Inhibition ratio (%) c-Met: 29.5%
[5]; 10 nM
  Inhibition ratio (%) c-Src: 20.3%
[5]; 1000 nM
  Inhibition ratio (%) c-Src: 43.6%
[6]; 10 nM
  Inhibition ratio (%) ErbB2: 17.4%
[6]; 1000 nM
  Inhibition ratio (%) ErbB2: 22.2%
[7]; 10 nM
  Inhibition ratio (%) ABL: 17.5%
[7]; 1000 nM
  Inhibition ratio (%) ABL: 28.8%
[8]; 10 nM
  Inhibition ratio (%) VEGFR-1: 75.6%
[8]; 1000 nM
  Inhibition ratio (%) VEGFR-1: 100.0%
[9]; 10 nM
  Inhibition ratio (%) ErbB4: 2.0%
[9]; 1000 nM
  Inhibition ratio (%) ErbB4: 7.0%
[10]; 10 nM
  Inhibition ratio (%) VEGFR-2: 90.4%
[10]; 1000 nM
  Inhibition ratio (%) VEGFR-2: 98.7%
[11]; 10 nM
  Inhibition ratio (%) RET: 13.2%
[11]; 1000 nM
  Inhibition ratio (%) RET: 90.5%
[12]; 10 nM
  Inhibition ratio (%) EGFR: 9.6%
[12]; 1000 nM
  Inhibition ratio (%) EGFR: 11.3%
[13]; 10 nM
  Inhibition ratio (%) PDGFR-β: 56.4%
[13]; 1000 nM
  Inhibition ratio (%) PDGFR-β: 87.8%
[14]; 10 nM
  Inhibition ratio (%) EPH-A2: 4.2%
[14]; 1000 nM
  Inhibition ratio (%) EPH-A2: 7.7%
[15]; 10 nM
  Inhibition ratio (%) IGF1R: 23.5%
[15]; 1000 nM
  Inhibition ratio (%) IGF1R: 11.0%
[16]; 10 nM
  Inhibition ratio (%) PDGFR-α: 50.2%
[16]; 1000 nM
  Inhibition ratio (%) PDGFR-α: 87.1%
